{
  "source": "patent US9511120B2",
  "about": "“Use of the angiotensin-(1-9) peptide or derivatives thereof, use of vectors overexpressing the ACE2 enzyme that produces angiotensin-(1-9) for preparing medicaments useful for preventing, reverting, inhibiting and/or reducing hypertension and/or inducing vasodilation” (PONTIFICA UNIVERSIDAD CATÓLICA DE CHILE, priority 2012, dated 2016)",
  "key": {"[1]": {"tested_on": "hypertensive myocardial fibrosis by pressure overload", "assay": "Goldblatt model: volume fraction of total collagen in the ventricle (picrosirius red)", "type": "in vivo, rat", "settings": "GB rats", "text": "(§1) Lewis normotensive rats (weight 150±10 g), which were separated randomly into the experimental hypertension model group or GB (Ocaranza et al. J. Hypertens. 20:413-20, 2002) or control group (S) were used. The latter corresponded to pseudo-operated animals. All animals were maintained under controlled conditions of light and darkness and had free access to food and water. Four weeks after surgery and at a blood pressure above 140 mmHg, GB rats were randomized for the chronic administration of angiotensin-(1-9) through an osmotic pump (602 ng kg^−1min^−1) via the jugular vein during two weeks. The animals were euthanized after 6 weeks post-surgery.\nSections of 5 μm of ventricle, previously included in Bouin, which were treated with picrosirius red, were used. The tissue was examined under light microscopy, images were captured with a Nikon DS Fi1 camera and projected on a monitor. The Matlab program was used to measure the interstitial collagen content according to the procedure described by Ocaranza et al. (J. Cardiovasc. Pharmacol. 40:246-54, 2002)."}, "[2]": {"tested_on": "hypertensive rats by clamping the renal artery (Goldblatt model)", "assay": "Goldblatt model (GB, 2 kidneys, 1 clip): body weight, cardiac mass, systolic blood pressure", "type": "in vivo, rat", "text": "as §1\nSystolic blood pressure (SBP) was measured by the tail plethysmographic method in the animals. To such end, rats were lightly anesthetized with ethyl ether. The measurement was performed once a week by researchers blind to the treatment (Ocaranza et al. J. Hypertens. 20:413-20, 2002).\nThe degree of cardiac hypertrophy (CH) was measured by the ratio of the cardiac mass (CM), the body mass (BM) and relative cardiac mass (RCM; [CM/BM]*100) (Ocaranza et al., J. Hypertens. 28:1054-1064, 2010)."}},
  "note": "Where no end group is shown, it is not given here.",
  "data": [
    {"sequence": "DRVYIHPFH", "values": [
      {"measurement": "decrease of VFTC as compared to untreated hypertensive rats", "setting": "[1]", "value": 41, "unit": "%"},
      {"measurement": "volume fraction of total collagen (VFTC)", "setting": "[1]; untreated GB 6.5±1", "value": 3.8, "unit": "%"},
      {"measurement": "decrease of systolic blood pressure", "setting": "[2]; GB rats, from week 1 after the administration, maintained 2 weeks", "value": 15, "unit": "%"},
      {"measurement": "CM", "setting": "[2]; GB rats, two weeks treatment", "value": "0.37 ± 0.02 ^ g"},
      {"measurement": "RCM", "setting": "[2]; GB rats, two weeks treatment", "value": "0.84 ± 0.04", "unit": "mg/g"},
      {"measurement": "RCM", "setting": "[2]; hypertensive rats vs. 400±1 in GB, not statistically significant", "value": "380±2"},
      {"measurement": "BW (as printed in text)", "setting": "[2]; rats with HTN vs. untreated GB animals 0.93±0.04", "value": "0.84 ± 0.03", "unit": "g"}
    ]}
  ]
}
